Among the test systems are UO-31; TK-10; SK-MEL-5; NCI-H460; HCC 2998; T47D; RPMI-8226; NCI-H23; ACHN; UACC-257; KM12; MCF7; EKVX; A549; NCI/ADR-RES; SF-295; SNB-19; HOP-92.
What all share (assay): growth of human tumour cells (NCI), 48 h

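Exposure lasted 48 hours, with cells grown in 96-well plates and compounds tested at five concentrations. At the GI50, growth is halved.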 Activity calls are given as the source filed them. Cut-off read from the data, not from the text of the source: active = GI50 up to about 1.1 µM and inactive = higher. Residues, ends and D or L forms follow the SMILES beside them. *: point of attachment. Boc = CC(C)(C)OC(=O)*; OBn = c1ccc(CO*)cc1

As for `O=C(CC(C(=O)c1ccsc1)c1cccs1)c1ccsc1` (stereo not given), the GI50 in the assay on UO-31 was 25.8 µM (inactive); with TK-10 it was > 100 µM (inactive); in the assay with SK-MEL-5 it was 31.4 µM (inactive); in the assay with NCI-H460 it was 53.8 µM (inactive); in the assay with HCC 2998 it was > 100 µM (inactive); with T47D, 21.4 µM (inactive). For the same molecule, the GI50 was 12.1 µM (inactive) in the assay on RPMI-8226; 32.6 µM (inactive) in the assay on NCI-H23; 42 µM (inactive) in the assay on ACHN; 51.4 µM (inactive) in the assay with UACC-257; 31.5 µM (inactive) with KM12; 39 µM (inactive) in the assay on MCF7. For the same molecule, the GI50 in the assay with EKVX was 49.9 µM (inactive); in the assay with A549, 46.6 µM (inactive); in the assay with NCI/ADR-RES, 17.5 µM (inactive); with SF-295 it was 43.7 µM (inactive); in the assay with SNB-19 it was > 100 µM (inactive).

For the molecule `CC1CC(NN(C)C)C2(C(N)=O)C(N)=NC(=O)C12C#N` (stereo not given), the GI50 with HOP-92, with UO-31, with TK-10, in the assay with SK-MEL-5, with HCC 2998 and in the assay on T47D was > 100 µM (inactive) each time. The GI50 with RPMI-8226, in the assay with NCI-H23, with ACHN, in the assay with UACC-257, in the assay on KM12 and in the assay on MCF7 was > 100 µM (inactive) each time. The GI50 with EKVX, in the assay on A549, with NCI/ADR-RES, in the assay on SF-295 and in the assay with SNB-19 was > 100 µM (inactive) in each case.

Turning to `CCOc1ccc2c(c1)NC(=O)C(C1OC(c3ccccc3)=CC1=O)S2` (stereo not given), the GI50 in the assay with UO-31 was 29.3 µM (inactive); with TK-10 it was 43.7 µM (inactive); with SK-MEL-5, 18.8 µM (inactive); in the assay with NCI-H460, 16.3 µM (inactive); with HCC 2998, 14.4 µM (inactive); with T47D it was 15.8 µM (inactive). For the same molecule, the GI50 in the assay with RPMI-8226 was 12 µM (inactive); in the assay with NCI-H23, 28.2 µM (inactive); with ACHN, 37.2 µM (inactive); with UACC-257, 56.5 µM (inactive); in the assay with KM12, 23.9 µM (inactive); with MCF7 it was 16.2 µM (inactive). The GI50 with EKVX is 25.1 µM (inactive); in the assay on A549, 17.3 µM (inactive); with NCI/ADR-RES it was 24.9 µM (inactive); in the assay with SF-295, 27 µM (inactive); with SNB-19, 59.8 µM (inactive).

Take `CC(C)(C)OC(=O)n1c(-c2ccccc2F)cc(=O)c2cc3c(cc21)OCO3`: the GI50 was 7.24 µM (inactive) with HOP-92; 0.188 µM (active) with UO-31; 4.66 µM (inactive) in the assay with TK-10; 0.0521 µM (active) with SK-MEL-5; 0.0656 µM (active) in the assay on NCI-H460; 0.0715 µM (active) with HCC 2998. The GI50 was 16.8 µM (inactive) in the assay with T47D; 0.0364 µM (active) with RPMI-8226; 0.398 µM (active) in the assay on NCI-H23; 0.186 µM (active) in the assay with ACHN; 0.028 µM (active) with KM12; 0.0413 µM (active) with MCF7. The GI50 in the assay with A549 is 0.103 µM (active); in the assay with NCI/ADR-RES it was 0.0231 µM (active); in the assay on SF-295, 0.05 µM (active); in the assay with SNB-19, 0.145 µM (active).

On to `CN1C(=O)C(/C=N/NC(=O)c2cccnc2)C(N)N(C)C1=O` (stereo not given), for which the GI50 in the assay on UO-31, with TK-10, with SK-MEL-5, in the assay on NCI-H460, in the assay on HCC 2998 and in the assay with T47D was > 100 µM (inactive) in each case. In addition, the GI50 in the assay on RPMI-8226, with NCI-H23, in the assay with ACHN, with UACC-257, in the assay with KM12 and in the assay with MCF7 was > 100 µM (inactive) throughout. The GI50 with EKVX, in the assay with A549, with NCI/ADR-RES, in the assay on SF-295 and in the assay with SNB-19 was > 100 µM (inactive) each time.

On to `c1n[nH]cc1C12C3C4C5C3C1C5C42` (stereo not given), for which the GI50 with HOP-92 is 65.6 µM (inactive); in the assay with UO-31, > 100 µM (inactive); with TK-10 it was > 100 µM (inactive); in the assay on SK-MEL-5, > 100 µM (inactive); in the assay with HCC 2998, > 100 µM (inactive); with T47D, 85.3 µM (inactive). In addition, the GI50 with RPMI-8226, with NCI-H23, in the assay with ACHN, with UACC-257, in the assay with KM12 and in the assay with MCF7 was > 100 µM (inactive) throughout. In addition, the GI50 is 85.7 µM (inactive) in the assay with EKVX; > 100 µM (inactive) in the assay on A549; > 100 µM (inactive) in the assay on NCI/ADR-RES; > 100 µM (inactive) in the assay on SF-295; > 100 µM (inactive) in the assay on SNB-19.

For the molecule `Cc1nc2c(Br)cc(Br)cc2c(=O)n1-c1ccccc1NC1OC(CO)C(O)C(O)C1O` (stereo not given), the GI50 with HOP-92, in the assay on UO-31, in the assay with TK-10, in the assay with SK-MEL-5, in the assay on NCI-H460 and in the assay on HCC 2998 was > 100 µM (inactive) each time. In addition, the GI50 with T47D, in the assay with RPMI-8226, in the assay with NCI-H23, in the assay with ACHN, in the assay on UACC-257 and with KM12 was > 100 µM (inactive) throughout. The GI50 in the assay on MCF7, in the assay on EKVX, with NCI/ADR-RES, with SF-295 and in the assay on SNB-19 was > 100 µM (inactive) throughout.

`Cc1ccc(NC(=S)NNC(=O)c2cc(-c3ccccc3)nc3ccccc23)cc1`: the GI50 was 11.8 µM (inactive) in the assay on HOP-92; 12.7 µM (inactive) in the assay on UO-31; 14 µM (inactive) with TK-10; 10.4 µM (inactive) with SK-MEL-5; 18.7 µM (inactive) in the assay on NCI-H460; 10.8 µM (inactive) with HCC 2998. The GI50 is 3.21 µM (inactive) in the assay with T47D; 4.59 µM (inactive) in the assay on RPMI-8226; 12.6 µM (inactive) in the assay with NCI-H23; 16.3 µM (inactive) in the assay with ACHN; 14.4 µM (inactive) with UACC-257; 11.1 µM (inactive) in the assay on KM12. In addition, the GI50 is 11.2 µM (inactive) with MCF7; 11.9 µM (inactive) in the assay on A549; 14 µM (inactive) with NCI/ADR-RES; 5.92 µM (inactive) in the assay on SF-295; 16.7 µM (inactive) with SNB-19.

For `CCOC(=O)NC(Nc1ccc(S(=O)(=O)Nc2ncccn2)cc1)(C(=O)OCC)C(F)(F)F` (stereo not given), the GI50 in the assay with HOP-92, in the assay with UO-31, with SK-MEL-5, with NCI-H460, in the assay with HCC 2998 and in the assay on T47D was > 100 µM (inactive) each time. Moreover, the GI50 is > 100 µM (inactive) with RPMI-8226; > 100 µM (inactive) in the assay on NCI-H23; > 100 µM (inactive) with ACHN; > 100 µM (inactive) with UACC-257; > 100 µM (inactive) in the assay on KM12; 0.279 µM (active) in the assay on MCF7. Besides, the GI50 in the assay with EKVX, in the assay on A549, with NCI/ADR-RES, in the assay with SF-295 and with SNB-19 was > 100 µM (inactive) throughout.

On to `CC(=O)c1sc(Nc2ccc(Cl)c(Cl)c2)nc1C`, for which the GI50 in the assay with UO-31 was > 100 µM (inactive); in the assay on TK-10, > 100 µM (inactive); in the assay on SK-MEL-5 it was > 100 µM (inactive); in the assay with NCI-H460, > 100 µM (inactive); in the assay with HCC 2998, > 100 µM (inactive); in the assay on T47D, 40 µM (inactive). In addition, the GI50 was 64.4 µM (inactive) in the assay with RPMI-8226; > 100 µM (inactive) in the assay on NCI-H23; 70.6 µM (inactive) in the assay on ACHN; 68.5 µM (inactive) in the assay with UACC-257; 65.2 µM (inactive) with KM12; 37.9 µM (inactive) in the assay with MCF7. The GI50 with EKVX is 5.64 µM (inactive); in the assay on A549, 96.6 µM (inactive); in the assay with NCI/ADR-RES, > 100 µM (inactive); in the assay on SF-295, 35.1 µM (inactive); in the assay with SNB-19 it was > 100 µM (inactive).

Regarding `CC(C)C(NC(=O)C(Cc1ccccc1)NC(=O)OC(C)(C)C)C(=O)NCC(=O)OCc1ccccc1` (stereo not drawn) (Boc-Phe-Val-Gly-OBn; configuration not given here), the GI50 with UO-31 is 21.7 µM (inactive); in the assay on TK-10, 13 µM (inactive); with NCI-H460, 18.8 µM (inactive); with HCC 2998, 17.8 µM (inactive); with T47D, 18.7 µM (inactive); in the assay with RPMI-8226 it was 16.5 µM (inactive). The GI50 in the assay on NCI-H23 is 16.8 µM (inactive); with ACHN, 17.5 µM (inactive); with UACC-257, 20.4 µM (inactive); in the assay on MCF7, > 10 µM (inactive); with EKVX it was 20.4 µM (inactive); with NCI/ADR-RES, > 100 µM (inactive). The figures for the GI50 with SF-295 and in the assay on SNB-19 were 18.6 µM (inactive) and 25.6 µM (inactive), respectively.

Turning to `COc1cc(-c2cc(=O)c3c(OC)c(OC)c(OC)c(OC)c3o2)cc(OC)c1OC` [HEPATAMETHOXYFLAVONE], the GI50 in the assay with HOP-92 is 9.98 µM (inactive); with UO-31, 7.38 µM (inactive); in the assay on TK-10 it was 44.4 µM (inactive); in the assay on SK-MEL-5, 12.4 µM (inactive); in the assay with NCI-H460, 42.3 µM (inactive); with HCC 2998, 30.3 µM (inactive). Besides, the GI50 in the assay on T47D is 12.7 µM (inactive); in the assay with RPMI-8226 it was 26.1 µM (inactive); in the assay on NCI-H23, 41.8 µM (inactive); in the assay on ACHN, 21.9 µM (inactive); in the assay with UACC-257, 40 µM (inactive); with MCF7, 84.3 µM (inactive). The GI50 in the assay with EKVX is 48.4 µM (inactive); in the assay on A549, 35.5 µM (inactive); in the assay on NCI/ADR-RES, 23.6 µM (inactive); in the assay on SF-295, 28.1 µM (inactive); with SNB-19, 76.6 µM (inactive).

The values are drawn from ChEMBL document CHEMBL1201862, “PubChem BioAssay data set” (2004).
